The values that follow come from patent US20080312208A1, “Pyridine Analogues” (ASTRAZENECA AB, priority 2005, published 2008).

Series [1] deals with T1, P2Y12 receptor (Homo sapiens, UniProt Q9H244).
T1 construct: expressed in transfected cells; host or cells: CHO cells (membranes)
Kind of series: Functional inhibition of 2-Me-S-ADP induced P2Y12 signalling (35S-GTPγS, cell membranes). The series is classed as biochemical. Particulars: membranes from P2Y12 transfected CHO-cells, EC80 concentration of agonist 2-methyl-thio-adenosine diphosphate, 30° C. for 45 min. As to the method:
Functional inhibition of the P2Y12 receptor can be measured by in vitro assays using cell membranes from P2Y12 transfected CHO-cells, the methodology is indicated below.
Functional inhibition of 2-Me-S-ADP induced P2Y12 signalling: 5 μg of membranes were diluted in 200 μl of 200 mM NaCl, 1 mM MgCl2, 50 mM HEPES (pH 7.4), 0.01% BSA, 30 μg/ml saponin and 10 μM GDP. To this was added an EC80 concentration of agonist (2-methyl-thio-adenosine diphosphate), the required concentration of test compound and 0.1 μCi ^35S-GTPγS. The reaction was allowed to proceed at 30° C. for 45 min. Samples were then transferred on to GF/B filters using a cell harvester and washed with wash buffer (50 mM Tris (pH 7.4), 5 mM MgCl2, 50 mM NaCl). Filters were then covered with scintillant and counted for the amount of ^35S-GTPγS retained by the filter. Maximum activity was that determined in the presence of the agonist and minimum activity in the absence of the agonist following subtraction of the value determined for nonspecific activity. The effect of compounds at various concentrations was plotted according to the equation
y=A+((B−A)/(1+((C/x)̂D)))
and IC50 estimated where A is the bottom plateau of the curve i.e. the final minimum y value B is the top of the plateau of the curve i.e. the final maximum y value C is the x value at the middle of the curve. […]
For orientation: Binding of GTPγS marks nucleotide exchange on a G protein.

Series [2] can be described thus: Moisture adsorption of crystalline form on storage at 80% RH. The series is classed as physicochemical. To be noted: stored at 80% RH (ambient). As to the method:
The crystalline forms may be further characterised by the presence of one or more of the additional properties listed below: • (i) for Form I • (I) when characterised by thermogravimetric analysis, a weight loss of approx. 0.8% occurs in the range from 25° C. up to 205° C., and/or • (II) when characterised by differential scanning calorimetry, at a heating rate of 10° C. per minute in a closed cup with a pinhole under flowing nitrogen, a melting temperature (Tm) having an onset at about 194° C. and/or an associated endotherm of melting of about 96 J/g; and/or • (III) when stored at 80% RH (ambient) less than 0.2% moisture is adsorbed, • (i) […] • (I) when characterised by thermogravimetric analysis, a weight loss of approx. 0.2% occurs in the range from 25° C. up to 205° C., and/or • (II) when characterised by differential scanning calorimetry, at a heating rate of 10° C. per minute in a closed cup with a pinhole under flowing nitrogen, a melting temperature (Tm) having an onset at about 193° C. and/or an associated endotherm of melting of about 105 J/g.

T1 sequence (Q9H244 whole entry): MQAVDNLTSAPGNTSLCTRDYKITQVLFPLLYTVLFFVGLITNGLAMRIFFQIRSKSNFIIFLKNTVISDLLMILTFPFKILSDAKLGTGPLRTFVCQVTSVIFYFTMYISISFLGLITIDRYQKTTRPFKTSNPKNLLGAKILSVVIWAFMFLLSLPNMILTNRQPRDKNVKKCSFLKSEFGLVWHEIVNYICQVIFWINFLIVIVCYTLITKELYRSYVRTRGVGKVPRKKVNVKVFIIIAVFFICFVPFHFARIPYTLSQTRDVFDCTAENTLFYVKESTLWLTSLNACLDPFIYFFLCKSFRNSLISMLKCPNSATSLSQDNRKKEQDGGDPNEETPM

In general, IC50 refers to the point on the concentration scale where inhibition reaches its midpoint. Higher therefore signals a need for much substance. In series [1], `Cc1nc(N2CC(C(=O)NS(=O)(=O)Cc3cccc(F)c3)C2)c(C#N)cc1C(=O)OC(C)C` [Example 91, Isopropyl 5-cyano-6-[3-({[(3-fluorobenzyl)sulfonyl]amino}carbonyl)azetidin-1-yl]-2-methylnicotinate] returned an IC50 of 0.46 µM. This lies in the sub-micromolar range.
Still for that read-out and setting: as for `CCOC(=O)c1cc(C#N)c(N2CCC(C(=O)NS(=O)(=O)Cc3ccc(C(C)C)cc3)CC2)nc1C` [Example 119, Ethyl 5-cyano-6-[4-({[(4-isopropylbenzyl)sulfonyl]amino}carbonyl)piperidin-1-yl]-2-methylnicotinate], the figure is 0.25 µM.
For `CCOC(=O)c1cc(C#N)c(N2CCC(C(=O)NS(=O)(=O)Cc3ccccc3)CC2)nc1C` [Form I, 6-(4-{[(benzylsulfonyl)amino]carbonyl}piperidin-1-yl)-5-cyano-2-methylnicotinic acid ethyl ester], the moisture adsorbed entry in series [2] is on record as “less than 0.2%”.
